According to paper PMC3499586, “Heterotrimeric G-protein Signaling Is Critical to Pathogenic Processes in Entamoeba histolytica” (PLoS Pathogens, 2012):

Key:
EhGα1 = molecular target: T1, EhGα1 (Entamoeba histolytica, UniProt C4M483); test: […]GTPγS radionucleotide binding; conditions: 30 °C; association limited by spontaneous GDP release; labelled compound; a rate, not an affinity
T1 construct: gene EHI_140350; E. coli; N-terminal TEV-cleavable His6 tag; HM-1:IMSS used for trophozoite work

human Gαi1 = molecular target: T2, human Gαi1 (Homo sapiens, UniProt P63096); test: […]GTPγS radionucleotide binding; conditions: 30 °C; association limited by spontaneous GDP release; labelled compound; a rate, not an affinity; figure legend gives 0.06 ±0.01
T2 construct: gene GNAI1; purified protein; details not in main text

EhRGS-RhoGEF = molecular target: T3, EhRGS-RhoGEF (E. histolytica, UniProt C4LYV4 1-519); test: SPR
T3 chain: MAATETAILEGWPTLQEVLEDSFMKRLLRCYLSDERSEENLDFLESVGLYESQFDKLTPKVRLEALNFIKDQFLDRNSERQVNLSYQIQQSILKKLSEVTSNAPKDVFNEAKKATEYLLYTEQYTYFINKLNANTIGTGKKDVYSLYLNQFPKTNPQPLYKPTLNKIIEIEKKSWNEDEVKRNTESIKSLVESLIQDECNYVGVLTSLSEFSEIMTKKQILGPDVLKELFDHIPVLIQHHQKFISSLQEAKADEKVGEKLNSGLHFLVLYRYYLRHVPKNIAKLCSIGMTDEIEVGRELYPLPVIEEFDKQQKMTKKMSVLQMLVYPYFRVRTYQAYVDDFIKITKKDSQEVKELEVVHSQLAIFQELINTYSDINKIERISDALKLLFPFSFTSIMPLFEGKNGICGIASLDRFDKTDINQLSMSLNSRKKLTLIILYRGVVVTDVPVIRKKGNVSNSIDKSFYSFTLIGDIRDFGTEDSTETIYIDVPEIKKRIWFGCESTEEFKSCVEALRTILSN

T2 sequence (P63096 2-354): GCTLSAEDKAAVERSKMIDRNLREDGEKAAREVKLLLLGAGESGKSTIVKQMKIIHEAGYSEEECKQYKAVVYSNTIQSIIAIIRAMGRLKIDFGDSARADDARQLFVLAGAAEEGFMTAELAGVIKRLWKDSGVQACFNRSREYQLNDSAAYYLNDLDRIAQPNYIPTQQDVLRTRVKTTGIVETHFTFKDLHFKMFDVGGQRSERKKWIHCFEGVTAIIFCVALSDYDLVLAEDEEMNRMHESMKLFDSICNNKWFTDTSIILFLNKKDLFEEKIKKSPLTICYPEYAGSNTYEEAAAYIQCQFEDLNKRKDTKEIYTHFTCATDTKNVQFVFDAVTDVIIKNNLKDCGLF

Nc1nc2c(ncn2[C@@H]2O[C@H](COP(=O)(O)OP(=O)(O)OP(O)(O)=S)[C@@H](O)[C@H]2O)c(=O)[nH]1 [GTPγS]
kobs (EhGα1): 0.27 ± 0.06 min⁻¹ | kobs (human Gαi1): 0.064 min⁻¹

B1: EhGα1 (recombinant, purified from E. coli) (natural protein)
chain: MGCGQSKDNSIDKQIVEMAKSKPITVMLLGSGESGKSTIAKQLKILFGGGFPEQERATHKSSICSNVVTCMRTLIEQSAILNHPMKYQPKSKEFTTEDPVTLPFSPELVGDVEALWADEGIQATYEESAKFQLPDCAKYLFENVKRIAMEDYVPTEEDLIHNRTKTTGIHEYDFVVKDIPFHLIDVGGQRSERKKWVSFFSDVDCAIFVTSLAEYDMKLYEDGNTSRLTESIAVFKDIMTNEFLKGAVKLIFLNKMDLFEEKLTKVPLNTIFPEYTGGDNAVMGAQYIQQLFTGKLQTEEMNISGADGTANIEGAVNEKVYTNPTNATDGSNIKRVFMLAVDVIMKNMAANGKMRPTK
Kd (EhRGS-RhoGEF): 2100 nM
